Results on 3 molecules are retold here after patent US20170000784A1, “Autophagy Inhibitors” (priority 2013, published 2017).

Test [1] relates to UACC-257 melanoma cell line. In words: Cell viability (IC50) screen, CellTiter Glo, UACC-257. Format: cell-based. Conditions: Homo sapiens. The protocol:
(§1) U2OS cells were seeded at 500 cells per well in 5A McCoy's with 10% FBS in 96-well clear bottom, black-walled tissue culture plates. All melanoma cell lines (A375, UACC-91, UACC-257, UACC-502, UACC-903, UACC-1308, UACC-1940, UACC-2534, and UACC-3291) were seeded at 5,000 cells per well in RPMI 1640 with 10% FBS in 96-well clear bottom, black-walled tissue culture plates. After 24 hour incubation, cells were treated with VATG compounds in triplicate with a 10-point half log dose response from […] for 24 and 48 hours. Medium was removed and 2× CellTiter Glo (Promega, G7571) reagent mixed 1:1 with Opti-MEM (Invitrogen, 31985062) was added at 100 μL per well and incubated at room temperature for 15 minutes while rocking. 75 μL per well was moved to a white-walled 96-well plate and luminescence quantified using the 96 LUM program on an EnVision plate reader (PerkinElmer) and exported for analysis. All triplicate data points were averaged and luminescent readings for each treatment were normalized to vehicle control for change in viability. Dose response curves were input into SigmaPlot for IC50 calculations (Systat Software Inc).
In general terms: ATP-based viability assays read luminescence as a measure of living cells.

For test [2], the system named is UACC-502 melanoma cell line. As to the kind of experiment: Cell viability (IC50) screen, CellTiter Glo, UACC-502. It counts as cell-based. Conditions: Homo sapiens. Here is the method:
as §1

Test [3] relates to UACC-1308 melanoma cell line. As to the kind of experiment: Cell viability (IC50) screen, CellTiter Glo, UACC-1308. It counts as cell-based. Conditions: Homo sapiens. The protocol:
as §1

Test [4] has as its system nine melanoma cell lines (A375, UACC-91, UACC-257, UACC-502, UACC-903, UACC-1308, UACC-1940, UACC-2534, UACC-3291). As to the kind of experiment: Cell viability (IC50) screen, panel of nine melanoma cell lines. Format: cell-based. The note with it: Homo sapiens, read-out: IC50 values, range over the melanoma cell lines. Here is the method:
as §1
Next, the sensitivity of each melanoma cell line to CQ, QN, Example 7, and Example 27 was assessed.

Test [5] relates to endogenous LC3 in U2OS cells. In words: Western blot of endogenous LC3 (LC3-II accumulation) in U2OS. Format: cell-based. The note with it: dose response, three hours, FIG. 11A. The protocol: For Western blotting, U2OS cells were seeded in 10 cm plates in 5A McCoy's with 10% FBS at 1×10^6 cells per plate. […] After treatment, cells were lysed [10 mM KPO4, 1 mM EDTA, 10 mM MgCl2, 5 mM EGTA, 50 mM bis-glycerophosphate, 0.5% NP40, 0.1% Brij35, 0.1% sodium deoxycholate, 1 mM NaVO4, 5 mM NaF, 2 mM DTT, and complete protease inhibitors (Sigma, P8340-5 mL)] and 50 μg of protein was resolved by SDS-PAGE. […] Proteins were detected with enhanced chemiluminescence or using the Odyssey machine and quantified (FIGS. 12, 15, 16, 7 and 11).

Test [6] concerns lysosomal protease cathepsin B in U2OS cells. As to the kind of experiment: Immunoblot of active cathepsin B. Format: cell-based. The note with it: 3 μM and 30 μM for 6 hours; effects stated at 30 μM (CQ: at either dose). Here is the method: For Western blotting, U2OS cells were seeded in 10 cm plates in 5A McCoy's with 10% FBS at 1×10^6 cells per plate. All melanoma lines were seeded in 10 cm plates in RPMI 1640 with 10% FBS at 1×10^6 cells per plate. After 24 hours, cells were treated with CQ, QN, Example 27, or Example 7 in a dose response of 0.3 μM, 1 μM, 3 μM, 10 μM, and 30 μM for three hours. A375 were treated with PLX-4032 (Selleck Chemicals, S1267) at 10 nM, 100 nM, and 1 μM for three hours with and without CQ, QN, Example 7, and Example 27 at 3 μM and 30 μM. After treatment, cells were lysed [10 mM KPO4, 1 mM EDTA, 10 mM MgCl2, 5 mM EGTA, 50 mM bis-glycerophosphate, 0.5% NP40, 0.1% Brij35, 0.1% sodium deoxycholate, 1 mM NaVO4, 5 mM NaF, 2 mM DTT, and complete protease inhibitors (Sigma, P8340-5 mL)] and 50 μg of protein was resolved by SDS-PAGE. Proteins were transferred to PVDF membranes and probed with primary antibodies [LC3 (Sigma, L7543-200UL), anti-α-tubulin (Sigma, T6199), cathepsin B (Santa Cruz, sc-13985)] for 16 hours at 4° C. followed by a secondary antibody [HRP-linked rabbit or mouse IgG (GE Healthcare, NA934 or NA931) or Odyssey IRDye 680CW Goat anti-rabbit IgG (LI-COR, 926-32221) or IRDye 800CW Goat anti-mouse IgG (LI-COR, 926-32210)] for 1 hour at room temperature. Proteins were detected with enhanced chemiluminescence or using the Odyssey machine and quantified (FIGS. 12, 15, 16, 7 and 11).
Deacidification of lysosomes would be expected to not only prevent the maturation and turnover of the lysosomes from early to late, but also affect the functionality of lysosomal enzymes and consequently the turnover of lysosomal constituents. To determine if lysosomal activity was inhibited, lysosomal protease cathepsin B activity was measured by immunoblotting (FIG. 12C). Lysates were harvested from cells and treated with CQ, QN, Example 7, and Example 27 at both 3 μM and 30 μM for 6 hours.
In general terms: A western blot detects proteins with antibodies after separation by electrophoresis.

The subject of test [7] is P. falciparum K1 (CQ resistant). As to the kind of experiment: microbe, parasite or virus in culture. The note with it: for antimalarial activity score: K1 strain; for IC50: Plasmodium falciparum, K1, Erythrocyte, read-out: Antimalarial activity (IC50) P. falciparum K1 (CQ resistant). Format: cell-based, Plasmodium falciparum. Here is the method: In this example, compounds of Formula A, Formula A^1, Formula A^2, Formula A^3 or pharmaceutically acceptable salts thereof, are tested in Plasmodium sp infected cells to determine the effectiveness of these compounds to determine their anti-malarial activity. […] After 24 hours, plates were harvested with a Betaplate™ cell harvester (Wallac, Zurich Switzerland) which transferred the red blood cells onto a glass fiber filter and washed with distilled water. Dried filters were inserted into a plastic foil with 10 mL of scintillation fluid and counted in a Betaplate™ liquid scintillation counter (Wallac, Zurich Switzerland). Results were obtained as counts per minute (cpm) per well at each concentration.

Where [8] appears, read: UACC-257 cell viability, CellTiter Glo, read-out: IC50.
[9] abbreviates: UACC-502 cell viability, CellTiter Glo, read-out: IC50.
Where [10] appears, read: UACC-1308 cell viability, CellTiter Glo, read-out: IC50.
Where [11] appears, read: cell viability, nine melanoma cell lines.

Read-outs that look alike come from different tables or passages of the source.

By IC50 is commonly meant the concentration that inhibits the measured activity by half. With `COc1ccc2nc3cc(Cl)ccc3c(NCCCCN3CCN(C)CC3)c2c1` [Example 7, 6-Chloro-2-methoxy-N-(4-(4-methylpiperazin-1-yl)butyl)acridin-9-amine], the half-inhibitory concentration (IC50) in test [1] (setting [8]) was 2 µM; in test [2] (setting [9]), 1.8 µM; in test [3] (setting [10]), 2.1 µM; in test [4] (setting [11]) it was 0.4 to 2.7 µM; in test [7], 0.023 µM. For the same molecule, the “accumulation of LC3-II” value in test [5] was “increased accumulation of LC3-II”. For the same molecule, in test [6], the “active cathepsin B” value is recorded as “nearly complete loss”. Moreover, the antimalarial activity score entry in test [7] is recorded as “good activity (good activity: IC50<50 ng/mL)”.

Regarding `CCN(CC)CCCC(C)Nc1c2ccc(Cl)cc2nc2ccc(OC)cc12` (stereo not drawn) [Quinacrine, quinacrine, reference compound], the half-inhibitory concentration (IC50) in test [1] (setting [8]) was 3 µM; in test [2] (setting [9]), 2.2 µM; in test [3] (setting [10]), 3.9 µM; in test [4] (setting [11]), 1.9 to 3.9 µM. In addition, the “active cathepsin B” value in test [6] was “nearly complete loss”.

On to `CN1CCN(CCNc2c3c(nc4cc(Cl)ccc24)CCCC3)CC1` [Example 27, 6-Chloro-N-(2-(4-methylpiperazin-1-yl)ethyl)-1,2,3,4-tetrahydroacridin-9-amine], for which the IC50 in test [1] (UACC-257) is 25.3 µM; in test [2], 42.3 µM; in test [3] it was 14.9 µM; in test [4] it was 15 to 42 µM; in test [7] it was 0.131 µM. The “accumulation of LC3-II” value in test [5] is reported as “increased accumulation of LC3-II”. In addition, the “active cathepsin B” value in test [6] is “significant decrease”. In test [7], the antimalarial activity score result is “low activity (low activity: IC50 50-1000 ng/mL)”.
